# Patent US10189854B2, “Substituted pyrimidine compounds” (Grünenthal GmbH, priority 2014, dated 2019)
# Molecular target: human PDE4B1 (Homo sapiens (Human), UniProt Q07343)
# Assay: TR-FRET assay using the LANCE Ultra cAMP kit to determine the activity of hPDE4B1
# Assay type: biochemical
# Conditions: IC50 inhibition of PDE4B, mean
# Description: TR-FRET Assay Using the LANCE® Ultra cAMP Kit to Determine the Activity of hPDE4B1
# The effects of the compounds on the activity of the human PDE4B1 was quantified by measuring the production of 5′AMP from cAMP using a human recombinant enzyme expressed in Sf9 cells and the LANCE® Ultra cAMP kit, a TR-FRET detection method from PerkinElmer. The human PDE4B1 enzyme was purchased from SignalChem Lifesciences (Catalog# P92-31BG, Lot# H296-2).
# The test compound, reference compound or water (control) was mixed with the enzyme (0.96 U) in a reaction buffer containing 50 mM Tris-HCl, 50 mM MgCl2 and 5 mM DTT (pH 8.5). Thereafter, the reaction was initiated by addition of 500 nM cAMP (substrate) and the mixture was incubated for 30 minutes at room temperature. For control basal measurements, the enzyme was omitted from the reaction mixture. After 30 minutes, the reaction was stopped and diluted by a factor of 100 with the reaction buffer supplemented with 500 μM IBMX. The fluorescence donor (europium chelate-labeled cAMP) and the fluorescence acceptor (anti-cAMP antibody labeled with the ULight™ dye) were then added together with 500 μM IBMX to a 10 μl aliquot. After 60 minutes, the fluorescence transfer corresponding to the amount of residual cAMP was measured at λex=337 nm, λem=620 nm and λem=665 nm using a microplate reader (PHERAstar, BMG). The enzyme activity was determined by dividing the signal measured at 665 nm by that measured at 620 nm (ratio) multiplied by 10000. The results were expressed as percent inhibition of the control enzyme activity. IC50 values (IC50=concentration causing a half-maximal inhibition of control specific activity) were derived from dose response measurements with ten different concentrations (n=3; N=1-3).
# Several compounds according to the invention are tested with above mentioned assay.
# Sequence of human PDE4B1 (Q07343 whole entry): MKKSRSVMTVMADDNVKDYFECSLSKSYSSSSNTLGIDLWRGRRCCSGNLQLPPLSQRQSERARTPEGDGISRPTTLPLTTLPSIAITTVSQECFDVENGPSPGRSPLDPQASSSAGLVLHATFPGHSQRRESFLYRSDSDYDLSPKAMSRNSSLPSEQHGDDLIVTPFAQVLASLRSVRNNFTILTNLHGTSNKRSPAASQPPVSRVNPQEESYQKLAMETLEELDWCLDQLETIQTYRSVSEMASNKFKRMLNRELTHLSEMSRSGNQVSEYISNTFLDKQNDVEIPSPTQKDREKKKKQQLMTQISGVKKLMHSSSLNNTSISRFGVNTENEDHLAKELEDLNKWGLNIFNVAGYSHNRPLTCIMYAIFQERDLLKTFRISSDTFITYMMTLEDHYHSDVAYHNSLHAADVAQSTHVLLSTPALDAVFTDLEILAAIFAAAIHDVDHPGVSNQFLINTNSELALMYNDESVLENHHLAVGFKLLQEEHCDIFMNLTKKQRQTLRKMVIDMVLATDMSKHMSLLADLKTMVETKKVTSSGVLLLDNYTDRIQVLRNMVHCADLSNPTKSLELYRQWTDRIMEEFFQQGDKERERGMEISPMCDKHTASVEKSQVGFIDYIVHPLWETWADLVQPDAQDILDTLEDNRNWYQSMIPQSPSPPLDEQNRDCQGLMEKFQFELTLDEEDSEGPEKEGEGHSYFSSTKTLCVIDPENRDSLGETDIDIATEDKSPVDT
row,IC50 [µM],Compound
1,< 0.1,"O=C(c1ccc2c(c1)N(c1ncc(-c3ccccc3)cn1)CC21CC1)N1C[C@@H]2C[C@H]1CN2 [Compound 249, [(1S,4S)-2,5-Diazabicyclo[2.2.1]heptan-2-yl]-[1-(5-phenyl-pyrimidin-2-yl)-spiro[1,2-dihydro-indole-3,1′-cyclopropane]-6-yl]-methanone]"
2,< 0.1,"CN(CCO)C(=O)c1ccc2c(c1)N(c1ncc(-c3cc(N)ccn3)cn1)CC21CC1 [Compound 251, 1-[5-(4-Amino-pyridin-2-yl)-pyrimidin-2-yl]-N-(2-hydroxy-ethyl)-N-methyl-spiro[1,2-dihydro-indole-3,1′-cyclopropane]-6-carboxylic acid amide]"
3,< 0.1,"C[S+]([O-])c1ccc(F)c(-c2cnc(N3CC4(CC4)c4ccc(C(=O)N5CCOCC5)cc43)nc2)c1 (stereo not shown) [Compound 355, [1-[5-[2-Fluoro-5-(methylsulfinyl)-phenyl]-pyrimidin-2-yl]-spiro[1,2-dihydro-indole-3,1′-cyclopropane]-6-yl]-morpholin-4-yl-methanone]"
4,< 0.1,"CN(CCO)C(=O)c1ccc2c(c1)N(c1ncc(-c3ccc4c(c3)OCO4)cn1)CC21CC1 [Compound 219, 1-[5-(1,3-Benzodioxol-5-yl)-pyrimidin-2-yl]-N-(2-hydroxy-ethyl)-N-methyl-spiro[1,2-dihydro-indole-3,1′-cyclopropane]-6-carboxylic acid amide]"
5,< 0.1,"CCc1ccnc(-c2cnc(N3CC4(CC4)c4ccc(C(=O)N(C)CC(N)=O)cc43)nc2)c1 [Compound 308, N-(Carbamoyl-methyl)-1-[5-(4-ethyl-pyridin-2-yl)-pyrimidin-2-yl]-N-methyl-spiro[1,2-dihydro-indole-3,1′-cyclopropane]-6-carboxylic acid amide]"
6,< 0.1,"CN(CCO)C(=O)c1ccc2c(c1)N(c1ncc(-c3cc(S(C)(=O)=O)ccn3)cn1)CC21CC1 [Compound 289, N-(2-Hydroxy-ethyl)-N-methyl-1-[5-(4-methylsulfonyl-pyridin-2-yl)-pyrimidin-2-yl]-spiro[1,2-dihydro-indole-3,1′-cyclopropane]-6-carboxylic acid amide]"
7,< 0.1,"CN(CCO)C(=O)c1ccc2c(c1)N(c1ncc(-c3cccc([S+](C)[O-])c3)cn1)CC21CC1 (stereo not shown) [Compound 281, N-(2-Hydorxy-ethyl)-N-methyl-1-[5-[3-(methylsulfinyl)-phenyl]pyrimidin-2-yl]-spiro[1,2-dihydro-indole-3,1′-cyclopropane]-6-carboxylic acid amide]"
8,< 0.1,"O=C(c1ccc2c(c1)N(c1ncc(-c3ccccc3F)cn1)CC21CC1)N1C[C@@H]2C[C@H]1CN2 [Compound 221, [(1S,4S)-2,5-Diazabicyclo[2.2.1]heptan-2-yl]-[1-[5-(2-fluorophenyl)-pyrimidin-2-yl]-spiro[1,2-dihydro-indole-3,1′-cyclopropane]-6-yl]-methanone]"
9,< 0.1,"O=C(c1ccc2c(c1)N(c1ncc(-c3cc(N4CCCC4)ccn3)cn1)CC21CC1)N1CCOCC1 [Compound 291, Morpholin-4-yl-[1-[5-(4-pyrrolidin1--yl-pyridin-2-yl)-pyrimidin-2-yl]-spiro[1,2-dihydro-indole-3,1′-cyclopropane]-6-yl]-methanone]"
10,0.1 to 1,"COc1cc(C2CC2)cc(-c2cnc(N3CC4(CC4)c4ccc(C(=O)N(C)CCO)cc43)nc2)n1 [Compound 361, 1′-(5-(4-cyclopropyl-6-methoxypyridin-2-yl)pyrimidin-2-yl)-N-(2-hydroxyethyl)-N-methylspiro[cyclopropane-1,3′-indoline]-6′-carboxamide]"
11,0.1 to 1,"O=C(c1ccc2c(c1)N(c1ncc(-c3ccccc3)cn1)CC21CC1)N1C[C@H]2C[C@@H]1CN2 [Compound 248, [(1R,4R)-2,5-Diazabicyclo[2.2.1]heptan-2-yl]-[1-(5-phenyl-pyrimidin-2-yl)-spiro[1,2-dihydro-indole-3,1′-cyclopropane]-6-yl]-methanone]"
12,< 0.1,"CCc1ccnc(-c2cnc(N3CC4(CC4)c4ccc(C(=O)N5CCNC(=O)C5)cc43)nc2)c1 [Compound 243, 4-[1-[5-(4-Ethyl-pyridin-2-yl)-pyrimidin-2-yl]-spiro[1,2-dihydro-indole-3,1′-cyclopropane]-6-carbonyl]-piperazin-2-one]"
13,< 0.1,"CN(CC(N)=O)C(=O)c1ccc2c(c1)N(c1ncc(-c3ccccc3F)cn1)CC21CC1 [Compound 256, N-(Carbamoyl-methyl)-1-[5-(2-fluorophenyl)-pyrimidin-2-yl]-N-methyl-spiro[1,2-dihydro-indole-3,1′-cyclopropane]-6-carboxylic acid amide]"
14,< 0.1,"CCc1ccnc(-c2cnc(N3CC4(CC4)c4ccc(C(=O)N(C)CCO)cc43)nc2)c1 [Compound 241, 1-[5-(4-Ethyl-pyridin-2-yl)-pyrimidin-2-yl]-N-(2-hydroxy-ethyl)-N-methyl-spiro[1,2-dihydro-indole-3,1′-cyclopropane]-6-carboxylic acid amide]"
15,< 0.1,"CN(CCO)C(=O)c1ccc2c(c1)N(c1ncc(-c3cc(C4(O)CC4)ccc3F)cn1)CC21CC1 [Compound 363, 1-[5-[2-Fluoro-5-(1-hydroxy-cyclopropyl)-phenyl]-pyrimidin-2-yl]-N-(2-hydroxy-ethyl)-N-methyl-spiro[1,2-dihydro-indole-3,1′-cyclopropane]-6-carboxylic acid amide]"
16,< 0.1,"CN(CCO)C(=O)c1ccc2c(c1)N(c1ncc(-c3csc(C(N)=O)n3)cn1)CC21CC1 [Compound 327, 4-[2-[6-[(2-Hydroxy-ethyl)-methyl-carbamoyl]-spiro[1,2-dihydro-indole-3,1′-cyclopropane]-1-yl]-pyrimidin-5-yl]-thiazole-2-carboxylic acid amide]"
17,< 0.1,"Cc1cccc(-c2cnc(N3CC4(CC4)c4ccc(C(=O)N5CCNC(=O)C5)cc43)nc2)n1 [Compound 286, 4-[1-[5-(6-Methyl-pyridin-2-yl)-pyrimidin-2-yl]-spiro[1,2-dihydro-indole-3,1′-cyclopropane]-6-carbonyl]-piperazin-2-one]"
18,< 0.1,"CN(CCO)C(=O)c1ccc2c(c1)N(c1ncc(-c3cccc(C4CC4)n3)cn1)CC21CC1 [Compound 269, 1-[5-(6-Cyclopropyl-pyridin-2-yl)-pyrimidin-2-yl]-N-(2-hydroxy-ethyl)-N-methyl-spiro[1,2-dihydro-indole-3,1′-cyclopropane]-6-carboxylic acid amide]"
19,< 0.1,"O=C(c1ccc2c(c1)N(c1ncc(-c3cc(NCC4CC4)ccn3)cn1)CC21CC1)N1CCOCC1 [Compound 295, [1-[5-[4-(Cyclopropyl-methylamino)-pyridin-2-yl]-pyrimidin-2-yl]-spiro[1,2-dihydro-indole-3,1′-cyclopropane]-6-yl]-morpholin-4-yl-methanone]"
20,< 0.1,"O=C(O)C1CCCN(C(=O)c2ccc3c(c2)N(c2ncc(-c4ccccc4F)cn2)CC32CC2)C1 (stereo not shown) [Compound 238, 1-[1-[5-(2-Fluorophenyl)-pyrimidin-2-yl]-spiro[1,2-dihydro-indole-3,1′-cyclopropane]-6-carbonyl]-piperidine-3-carboxylic acid]"
21,< 0.1,"CN(CCO)C(=O)c1ccc2c(c1)N(c1ncc(-c3cccc(O)c3)cn1)CC21CC1 [Compound 264, N-(2-Hydroxy-ethyl)-1-[5-(3-hydroxyphenyl)-pyrimidin-2-yl]-N-methyl-spiro[1,2-dihydro-indole-3,1′-cyclopropane]-6-carboxylic acid amide]"
22,< 0.1,"Nc1ccnc(-c2cnc(N3CC4(CC4)c4ccc(C(=O)N5C[C@@H]6C[C@H]5CN6)cc43)nc2)c1 [Compound 301, [1-[5-(4-Amino-pyridin-2-yl)-pyrimidin-2-yl]-spiro[1,2-dihydro-indole-3,1′-cyclopropane]-6-yl]-[(1S,4S)-2,5-diazabicyclo[2.2.1]heptan-2-yl]-methanone]"
23,< 0.1,"O=C(c1ccc2c(c1)N(c1ncc(-c3ccccc3F)cn1)CC21CC1)N1CC[C@@H](CO)C1 [Compound 311, [1-[5-(2-Fluorophenyl)-pyrimidin-2-yl]-spiro[1,2-dihydro-indole-3,1′-cyclopropane]-6-yl]-[(3R)-3-(hydroxymethyl)-pyrrolidin-1-yl]-methanone]"
24,< 0.1,"CCNc1ccc(F)c(-c2cnc(N3CC4(CC4)c4ccc(C(=O)N(C)CCO)cc43)nc2)c1 [Compound 343, 1-[5-(5-Ethylamino-2-fluoro-phenyl)-pyrimidin-2-yl]-N-(2-hydroxy-ethyl)-N-methyl-spiro[1,2-dihydro-indole-3,1′-cyclopropane]-6-carboxylic acid amide]"
25,< 0.1,"CN(CCO)C(=O)c1ccc2c(c1)N(c1ncc(-c3cccc(C[S+](C)[O-])c3)cn1)CC21CC1 (stereo not shown) [Compound 342, N-(2-Hydroxy-ethyl)-N-methyl-1-[5-[3-[(methylsulfinyl)-methyl]-phenyl]-pyrimidin-2-yl]-spiro[1,2-dihydro-indole-3,1′-cyclopropane]-6-carboxylic acid amide]"
